Measurements reported in patent publication US20260199367A1, “PLK1 DEGRADATION INDUCING COMPOUNDS WITH INCREASED RIGIDITY” (UPPTHERA, INC., priority 2022, published 2026).

Columns and labels:
Type in all cases: cell-based
[1] = target: T1, PLK1 (Homo sapiens, UniProt P53350); assay: Luciferase assay for PLK1 in HeLa LgBit (PLK1-HiBit KI) cell line; details: released after thymidine block, compound 300 nM, luminescence after 9 hours
T1 construct: endogenous in cells; host or cells: HeLa LgBit (PLK1-HiBit KI): HeLa cells stably expressing LgBit, with CRISPR/Cas9 knock-in of HiBit at the endogenous PLK1 locus
T1 sequence (P53350 whole entry): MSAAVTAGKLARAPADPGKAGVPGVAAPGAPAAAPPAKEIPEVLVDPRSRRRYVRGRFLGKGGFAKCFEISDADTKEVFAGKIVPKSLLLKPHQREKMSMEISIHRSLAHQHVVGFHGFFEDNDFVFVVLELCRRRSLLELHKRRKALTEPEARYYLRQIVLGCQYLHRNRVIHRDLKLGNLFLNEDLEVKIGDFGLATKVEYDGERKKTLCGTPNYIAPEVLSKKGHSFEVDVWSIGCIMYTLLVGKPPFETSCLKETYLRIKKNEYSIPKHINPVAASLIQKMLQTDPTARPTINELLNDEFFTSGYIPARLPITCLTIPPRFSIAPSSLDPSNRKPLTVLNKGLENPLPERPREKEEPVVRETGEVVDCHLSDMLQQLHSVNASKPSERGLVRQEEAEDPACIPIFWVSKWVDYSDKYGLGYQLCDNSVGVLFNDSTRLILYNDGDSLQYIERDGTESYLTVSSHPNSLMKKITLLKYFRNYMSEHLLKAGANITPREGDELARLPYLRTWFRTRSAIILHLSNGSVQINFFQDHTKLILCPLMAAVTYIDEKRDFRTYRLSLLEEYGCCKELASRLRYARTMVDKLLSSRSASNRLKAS
Protocol: A HeLa cell line in which the LgBit vector was transfected and expressed stably was prepared. Then, after constructing gRNA and donor to express the HiBit amino acid sequence behind the C-terminal of the PLK1 gene, which was inherent in the cell, it was inserted into the cell together with a vector capable of expressing CRISPR/Cas9. Only the cells in which the insertion was completed and knock-in had progressed were selected, sub-cultured and used.
The compounds of Examples were completely dissolved in DMSO (Sigma-Aldrich Cat. No. D2438, Lot. No. RNBL5438) and used in the experiment.
In the case of HeLa LgBit (Plk1-HiBit KI), the compounds were treated after being released after thymidine block, and the process was as follows. Thymidine (Sigma-Aldrich Cat. No. T9250-5G) was completely dissolved in ddH2O and used in the experiment. For thymidine block, the products were treated with 2 mM of thymidine and then incubated for 24 hours. For release and chemical treatment, the medium was suctioned and washed with 1×PBS. TrypLE™ was added and incubated in 37° C. CO2 incubator (Thermo Fisher Science, Cat. No. 4111) for 5 mins. Cells neutralized by adding complete media were counted through a counter. For each well of a 96-well culture plate (SPL), 3.3×10^4 cells and a total medium volume of 150 μl were seeded and incubated in a CO2 incubator.
Each cell line was incubated in a CO2 incubator for 18 hours, and Endurazine (Promega, Cat. No. N257B) was added to each well to make up 4% of the total volume. After adding compounds of Examples in a 96-well white plate (SPL) to a concentration of 300 nM, the wavelength of the plate reader (BMG Labtech, CLARIOstar Plus) was set to 470-480 nM, and then the luminescence was tracked in real time.

[2] = test system: NCI-H69 (H69) cell line; assay: Cell viability assay for NCI-H69 cell line; details: Homo sapiens, NCI-H69, 120 h, 5 days, EZ-Cytox, 0.46-3000 nM
Text: (§1) The NCI-H69 (hereafter H69) and NCI-H526 (hereafter H526) cell lines were purchased from Korea Cell Line Bank (KCLB, Seoul, Korea). For cell culture, RPMI 1640 (Gibco, Cat. No. 22400-089; Lot. No. 2537146), FBS (Gibco, Cat. No. 16000-044; Lot. No. 2511328P), Penicillin/Streptomycin (PS) (Gibco, Cat. No. 15140-122; Lot. No. 2441887), 75T cell culture flask (SPL, Cat. No. 71075), 175T cell culture flask (SPL, Cat. No. 71175), 96-well cell culture plate (SPL, Cat. No. 30096), PBS pH 7.4 (Gibco, Cat. No. 10010-023; Lot. No. 2509235), TrypLE™ Express (Gibco, Cat. No. 12605-010; Lot. No. 2323417), Cell Counter (Hematocytometer)(As one, Cat. No. 4-458-01), and 0.4% Trypan Blue Solution (DYNEBIO, Cat. No. CBT3710; Lot. No. 20221111) were used.
(§2) The compounds of Examples were completely dissolved in DMSO (Sigma-Aldrich Cat. No. D2438, Lot. No. RNBL7287) and used in the experiment. 3×10^4 cells were seeded for each well of a 96-well plate (SPL), and the cells were cultured in total volume of 150 μl. Each compound was diluted 3-folds from the highest concentration of 3000 nM to the lowest concentration of 0.46 nM. After treating the compound to each well to make the total volume of 200 μl, it was cultured in a CO2 incubator (Thermo Fisher Science, Cat. No. 4111) for 5 days. Then, after treating EZ-Cytox (DOGEN, Cat.NO. EZ-3000, Lot. No. DLS2308) 20 μl in each well, it was cultured in CO2 incubator for 4 hours. The absorbance of the completely cultured sample was measured by setting the wavelength of a plate reader (BMG Labtech, CLARIOstar Plus) to […], and was measured after shaking for 3 minutes in a plate reader before measurement.
(§3) (A: IC50 is less than 20 nM, B: IC50 is 50 nM or less, C: IC50 is 100 nM or less)

[3] = test system: NCI-H526 (H526) cell line; assay: Cell viability assay for NCI-H526 cell line; details: Homo sapiens, NCI-H526, 120 h, 5 days, EZ-Cytox, 0.46-3000 nM
Text: as §1, §2, §3

Value (luminescence value, PLK1-HiBit) [1]	SMILES	IC50 [2] [nM]	IC50 [3] [nM]
0.144	CC[C@@H]1C(=O)N(C)c2cnc(Nc3ccc(C(=O)N[C@H]4CC[C@H](NCC5CCN(c6ccc(C7CCC(=O)NC7=O)nc6)CC5)CC4)cc3OC)nc2N1C1CCCC1 (stereo partly drawn) [Compound 25, 4-(((R)-8-cyclopentyl-7-ethyl-5-methyl-6-oxo-5,6,7,8-tetrahydropteridin-2-yl)amino)-N-((1r,4R)-4-(((1-(6-(2,6-dioxopiperidin-3-yl)pyridin-3-yl)piperidin-4-yl)methyl)amino)cyclohexyl)-3-methoxybenzamide]	< 20	< 20
0.269	COc1cc(C(=O)NC2CCN(C(=O)CCN3CCN(c4ccc(NC5CCC(=O)NC5=O)cc4F)CC3)CC2)ccc1Nc1ncc2c(n1)N(C1CCCC1)CC(F)(F)C(=O)N2C (stereo not drawn) [Compound 26, 4-((9-cyclopentyl-7,7-difluoro-5-methyl-6-oxo-6,7,8,9-tetrahydro-5H-pyrimido[4,5-b][1,4]diazepin-2-yl)amino)-N-(1-(3-(4-(4-((2,6-dioxopiperidin-3-yl)amino)-2-fluorophenyl)piperazin-1-yl)propanoyl)piperidin-4-yl)-3-methoxybenzamide]	≤ 50	< 20
0.295	COc1cc(C(=O)NCC2CCN(CC3CCN(c4ccc(C5CCC(=O)NC5=O)cc4)CC3)CC2)ccc1Nc1ncc2c(n1)N(C1CCCC1)CC(F)(F)C(=O)N2C (stereo not drawn) [Compound 27, 4-((9-cyclopentyl-7,7-difluoro-5-methyl-6-oxo-6,7,8,9-tetrahydro-5H-pyrimido[4,5-b][1,4]diazepin-2-yl)amino)-N-((1-((1-(4-(2,6-dioxopiperidin-3-yl)phenyl)piperidin-4-yl)methyl)piperidin-4-yl)methyl)-3-methoxybenzamide]	≤ 50	≤ 50
0.259	COc1cc(C(=O)NCC2CCN(CC3CCN(c4ccc(NC5CCC(=O)NC5=O)cc4)CC3)CC2)ccc1Nc1ncc2c(n1)N(C1CCCC1)CC(F)(F)C(=O)N2C (stereo not drawn) [Compound 28, 4-((9-cyclopentyl-7,7-difluoro-5-methyl-6-oxo-6,7,8,9-tetrahydro-5H-pyrimido[4,5-b][1,4]diazepin-2-yl)amino)-N-((1-((1-(4-((2,6-dioxopiperidin-3-yl)amino)phenyl)piperidin-4-yl)methyl)piperidin-4-yl)methyl)-3-methoxybenzamide]	≤ 100	≤ 50
0.267	COc1cc(C(=O)NC2CCN(C(=O)CCN3CCN(c4ccc(NC5CCC(=O)NC5=O)cc4)CC3)CC2)ccc1Nc1ncc2c(n1)N(C1CCCC1)CC1(CC1)C(=O)N2C (stereo not drawn) [Compound 29, 4-((9′-cyclopentyl-5′-methyl-6′-oxo-5′,6′,8′,9′-tetrahydrospiro[cyclopropane-1,7′-pyrimido[4,5-b][1,4]diazepin]-2′-yl)amino)-N-(1-(3-(4-(4-((2,6-dioxopiperidin-3-yl)amino)phenyl)piperazin-1-yl)propanoyl)piperidin-4-yl)-3-methoxybenzamide]	≤ 100	≤ 50
0.250	COc1cc(C(=O)NC2CCC(NCC3CCN(c4ccc(C5CCC(=O)NC5=O)cc4F)CC3)CC2)ccc1Nc1ncc2c(n1)N(C1CCCC1)CC(F)(F)C(=O)N2C (stereo not drawn) [Compound 30, 4-((9-cyclopentyl-7,7-difluoro-5-methyl-6-oxo-6,7,8,9-tetrahydro-5H-pyrimido[4,5-b][1,4]diazepin-2-yl)amino)-N-((1r,4r)-4-(((1-(4-(2,6-dioxopiperidin-3-yl)-2-fluorophenyl)piperidin-4-yl)methyl)amino)cyclohexyl)-3-methoxybenzamide]	≤ 50	≤ 50
0.241	COc1cc(C(=O)NN2CCC(C(N)CN3CCN(c4ccc(C5CCC(=O)NC5=O)cc4F)CC3)CC2)ccc1Nc1ncc2c(n1)N(C(C)C)CC(F)(F)C(=O)N2C (stereo not drawn) [Compound 31, N-(4-(1-amino-2-(4-(4-(2,6-dioxopiperidin-3-yl)-2-fluorophenyl)piperazin-1-yl)ethyl)piperidin-1-yl)-4-((7,7-difluoro-9-isopropyl-5-methyl-6-oxo-6,7,8,9-tetrahydro-5H-pyrimido[4,5-b][1,4]diazepin-2-yl)amino)-3-methoxybenzamide]	≤ 50	≤ 50
